Key:
SW-620 = conditions: SW-620, Colon, cited from earlier work
SNB-75 = conditions: SNB-75, Central Nervous System, cited from earlier work
UO-31 = conditions: UO-31, Renal; cited from earlier work
MALME-3M = conditions: cited from earlier work
NCI-H226 = conditions: NCI-H226, Non-Small Cell Lung, cited from earlier work
OVCAR-5 = conditions: OVCAR-5, Ovarian; cited from earlier work
SK-OV-3 = conditions: SK-OV-3, Ovarian, cited from earlier work
SK-MEL-2 = conditions: SK-MEL-2, Melanoma, cited from earlier work
RPMI-8226 = conditions: RPMI-8226, Leukemia, cited from earlier work
[1] = Nonenzymatic reactivity of the 8,9-double bond with GSH (absorbance 330 nm); assay type: physicochemical; conditions: 3.25 mM GSH, pH 7.4, 1 h, 30° C.
From the text: Reaction of the 8,9-double bond with GSH was followed spectrophotometrically at 330 nm.
The sulfhydryl group of GSH is a potent nucleophile that rapidly reacts with most electrophilic α,β-unsaturated carbonyl groups via a Michael-addition mechanism.

EKVX = conditions: cited from earlier work
HS 578T = conditions: cited from earlier work
HCT-15 = conditions: HCT-15, Colon, cited from earlier work
NCI-H23 = conditions: NCI-H23, Non-Small Cell Lung, cited from earlier work

Which results are given for `CC1=C(CO)C2=C(C)C3(CC3)[C@@](C)(O)C(=O)C2=C1` [Irofulven, 6-hydroxymethylacylfulvene]?
GI50 (SW-620): 631 nM; TGI (SW-620): 3.16E−05; log(GI50) (SW-620): −6.2; log(TGI) (SW-620): −4.5; CC50 (SW-620; read-out: LC50): ≥ 100000 nM; GI50 (SNB-75): 200 nM; TGI (SNB-75): 5.01E−07; log(GI50) (SNB-75): −6.7; log(LC50) (SNB-75): −5.7; log(TGI) (SNB-75): −6.3; CC50 (SNB-75; read-out: LC50): 2000 nM; GI50 (UO-31): 200 nM; TGI (UO-31): 5.01E−07; log(GI50) (UO-31): −6.7; log(TGI) (UO-31): −6.3; GI50 (MALME-3M; Melanoma): 200 nM; TGI (MALME-3M; Melanoma): 5.01E−07; log(GI50) (MALME-3M; Melanoma): −6.7; log(LC50) (MALME-3M; Melanoma): −5.6; log(TGI) (MALME-3M; Melanoma): −6.3; CC50 (MALME-3M; read-out: LC50, Melanoma): 2510 nM; GI50 (NCI-H226): 200 nM; TGI (NCI-H226): 5.01E−07; log(GI50) (NCI-H226): −6.7; log(LC50) (NCI-H226): −5.2; log(TGI) (NCI-H226): −6.3; CC50 (NCI-H226; read-out: LC50): 6310 nM; GI50 (OVCAR-5): 158 nM; TGI (OVCAR-5): 5.01E−07; log(GI50) (OVCAR-5): −6.8; log(LC50) (OVCAR-5): −4.3; log(TGI) (OVCAR-5): −6.3; GI50 (SK-OV-3): 251 nM; TGI (SK-OV-3): 1.00E−06; log(GI50) (SK-OV-3): −6.6; log(LC50) (SK-OV-3): −5; log(TGI) (SK-OV-3): −6; CC50 (SK-OV-3; read-out: LC50): 10000 nM; GI50 (SK-MEL-2): 200 nM; TGI (SK-MEL-2): 3.98E−07; log(GI50) (SK-MEL-2): −6.7; log(LC50) (SK-MEL-2): −6.2; log(TGI) (SK-MEL-2): −6.4; CC50 (SK-MEL-2; read-out: LC50): 631 nM; GI50 (RPMI-8226): 31600 nM; TGI (RPMI-8226): 7.94E−05; log(GI50) (RPMI-8226): −4.5; log(TGI) (RPMI-8226): −4.1; CC50 (RPMI-8226; read-out: LC50): ≥ 100000 nM; reactivity of the α,β-unsaturated ketone with GSH [1]: relatively resistant to nucleophilic attack; GI50 (EKVX; Non-Small Cell Lung): 200 nM; TGI (EKVX; Non-Small Cell Lung): 5.01E−07; log(GI50) (EKVX; Non-Small Cell Lung): −6.7; log(LC50) (EKVX; Non-Small Cell Lung): −5.4; log(TGI) (EKVX; Non-Small Cell Lung): −6.3; CC50 (EKVX; read-out: LC50, Non-Small Cell Lung): 3980 nM; GI50 (HS 578T; Breast): 316 nM; TGI (HS 578T; Breast): 1.58E−06; log(GI50) (HS 578T; Breast): −6.5; log(LC50) (HS 578T; Breast): −4.7; log(TGI) (HS 578T; Breast): −5.8; CC50 (HS 578T; read-out: LC50, Breast): 20000 nM; GI50 (HCT-15): 316 nM; TGI (HCT-15): 5.01E−06; log(GI50) (HCT-15): −6.5; log(TGI) (HCT-15): −5.3; CC50 (HCT-15; read-out: LC50): ≥ 100000 nM; GI50 (NCI-H23): 79.4 nM; TGI (NCI-H23): 3.16E−07; log(GI50) (NCI-H23): −7.1; log(LC50) (NCI-H23): −6.1; log(TGI) (NCI-H23): −6.5; CC50 (NCI-H23; read-out: LC50): 794 nM
